These results are taken from patent publication US7250397B2, “Antiarrhythmic peptides” (Zealand Pharma A/S, priority 2000, dated 2007).

The subject of assay [1] is human osteoblast. As to the kind of experiment: Lucifer Yellow dye transfer in human osteoblasts. The class given is cell-based. The settings on record: 10 minutes; after 48 hours hypoxia 3-6% O2 (7 cells before). The procedure: (§1) Human osteblast cells (hOB): Cells were isolated from human bone marrow obtained by puncture of the posterior iliac spine of healthy volunteers (aged 20-36): 10-15 ml marrow material was collected in 15 ml PBS+Ca,Mg (Life Technologies, Cat.No. 14040) with 100 U/ml Heparin (Sigma, Cat.No. H-3149). The mononuclear fraction of the marrow was isolated on a Lymphoprep gradient (Nycomed Pharma, Cat.No. 1001967), by centrifugation at 2200 rpm for 30 min. After harvesting, the mononuclear fraction was washed once with culture medium and centrifuged at 1800 rpm for 10 min. Subsequently cells were counted and plated in culture medium at 8×10^6 cells/100 mm dish. hOB medium (all reagents obtained from Life Technologies): MEM w/o Phenol Red w/Glutamax (Cat.No. 041-93013) supplemented with 10% heat inactivated fetal calf serum (Cat.No. 10106) and 0.1% Penicillin/Streptomycin (Cat.No. 15140). Medium was changed the following day and the cells were cultured at 37° C. in 5%CO2 with medium change every 7 days. […]
To assess the effect of the compound on direct cellular coupling, microinjection experiments were performed according to the method described above. […] After 30 seconds, the number of cells containing dye was assessed. […] Then cellular coupling was re-assessed by microinjecting LY, and at this point the dye was only passed to an average of 7 cells (n=10).

In assay [2] the test system is alkaline phosphatase (ALP) activity of human osteoblasts. As to the kind of experiment: Alkaline phosphatase (ALP) assay in human osteoblasts. The class given is cell-based. The settings on record: four days; 10^−13-10^−6 M; normal culture conditions. The method, then:
as §1, with “days. After 3-4 weeks of culture the cells had reached 70% confluence.” for “days.”
• Day 1: Cells were plated in 96-well plates at a conc. of 8000 cells/well (hOB) or 3000 cells/well (ROS) in 200 μl normal culture medium. • Day 2: Medium was changed on the cells. • Day 4: (Day 3 for ROS): Cells were washed with 200 μl MEM, 0.1% BSA (Sigma, Cat.No. A-9418). […] Absorbance was measured using a plate reader at 405 nm. […]

Assay [3] concerns ventricular reentry arrhythmias. As to the kind of experiment: Ventricular reentry arrhythmias in dogs after coronary artery occlusion. The class given is in vivo, dog. The following applies: i.v. bolus and infusion after CAO; from the lowest dose. The procedure:
Three dogs were studied in the anesthetized, open chest state to facilitate electrode placement for mapping. α-chloralose was given as a bolus (200 mg/kg) and then a constant infusion at 8 mg/kg/hr (dissolved in polyethylene glycol, MW=200). The femoral vein and artery was cannulated for administration of fluid and drugs and for measurement of ascending aortic pressure, respectively.
The sinus node was clamped and the atrial appendage was paced with a programmable stimulator with constant current outputs at two times diastolic threshold. Pacing rate was ≧200 b/min to control heart rates. […] Endocardial Effective Refractory Period (ERP) was measured by the standard extrastimulus technique. Late ventricular diastolic threshold was measured during each intervention; the pacing current was four times threshold.
Test sites were chosen along the shaft of 16 pole needles (J. Kassell, Fayetteville, N.C.); each pole completely surrounds the needle shaft to prevent directionality of needle orientation from recording of adjacent Purkinje strands. Six bipolar electrograms (1 mm spacing) were recorded sequentially down the shaft of the needle by amplifying up to 1000 times, filtering from 3-1300 Hz and recording via oscilloscope during atrial pacing. Four intramural electrograms are recorded on each multipolar needle. […]

Entries after “also recorded” stand apart in the source; their conditions may differ.

On to “Ac-D-Tyr-D-Pro-D-4Hyp-Gly-D-Ala-Gly-NH2 [Compound 2]”, for which the “dye transfer, number of cells” value in assay [1] was 9 cells. In addition, the “ALP activity compared to untreated controls” value in assay [2] is recorded as “increased ALP activity at most of the concentrations tested; also recorded: stimulated ALP activity”. Also, the “inducibility of reentry ventricular tachycardia (VT)” value in assay [3] is “no longer inducible; also recorded: completely blocked; also recorded: No VT was inducible”.
